Results on 1 compound are retold here after US8470344B2, “Aqueous dispersions and solutions of difficult to dissolve materials and methods of their preparation” (Teva Pharmaceutical Industries Ltd., priority 2005, dated 2013).

A short description of series [1]: Dissolving or dispersing the compound-covered substrate matrix (dry powder) in water. Format: physicochemical. Here is the method:
1 mL of the Latanoprost solution (6.4 mg/mL) in ethanol was added to a mixture of NaH2PO4*H2O (0.553 g) and Na2HPO4 (0.564 g). The resulting mixture was dried under reduced pressure at room temperature to yield dry powder particles having latanoprost on the surface thereof. The dry powder was dissolved in water (120 mL) to form a solution. Benzalkonium chloride was added to the solution.
Latanoprost (17.97 mg) was dissolved in acetonitrile (5 mL). 1.5 mL of this solution were added to mixture of NaH2PO4 (0.464 g) and Na2HPO4 (0.469 g). The resulting mixture was dried under reduced pressure to obtain a dry powder. 50 mL of water were added to dry powder and stirred during 5 minutes. A fine suspension of Latanoprost with concentration about 0.01% (w/v) was obtained. 50 mL of water, containing Benzalkonium chloride and sodium chloride, were added to this suspension and stirred. The obtained clear solution of Latanoprost had concentration 0.005% (w/v).
Dexamethasone (104.05 mg) was dissolved in acetonitrile (5 mL). 1 mL of this solution was added to 545 mg of NaH2PO4*H2O and the mixture was dried in a reduced pressure for 15 hours. 20 mL of water were added and mixture was stirred. A fine suspension of dexamethasone (concentration about 0.1% w/v) was obtained.

Series [2] in a line: Comparative example: direct dissolution of latanoprost in water containing NaH2PO4 with stirring. Format: physicochemical. The protocol:
Latanoprost (5.621 mg) was dissolved in water (100 mL), containing NaH2PO4 (0.463 g). The mixture was stirred for 120 minutes.
The mixture from Example 3 was heated at 40° C. with stirring for 120 minutes. A solution of Latanoprost with concentration 0.00407% (w/v, or 81.4% of target concentration 0.005%) was obtained.

Turning to `CC(C)OC(=O)CCC/C=C\C[C@@H]1[C@@H](CC[C@@H](O)CCc2ccccc2)[C@H](O)C[C@@H]1O` [Latanoprost, Isopropyl (Z)-7-{(1R,2R,3R,5S)-3,5-dihydroxy-2-[3(R)-(3-hydroxyl-5-phenyl)pentyl]cyclopentyl}-5-heptenoate], in series [1] (Example 1: ethanol solution dried on NaH2PO4*H2O/Na2HPO4, powder dissolved in water (120 mL), benzalkonium chloride added, room temperature), the “content of Latanoprost in resultant solution” value is on record as 0.005 % (w/v). Moreover, the “appearance and stability of resultant solution” value in series [1] (Example 1: powder dissolved in water (120 mL), benzalkonium chloride added) is “transparent and stable”. Moreover, the “concentration of fine suspension of Latanoprost” value in series [1] (Example 2: acetonitrile solution dried on NaH2PO4/Na2HPO4, 50 mL water, stirred 5 minutes) was “about 0.01 % (w/v)”. Moreover, the “concentration of obtained clear solution of Latanoprost” value in series [1] (Example 2: after further 50 mL water containing benzalkonium chloride and sodium chloride) is listed as 0.005 % (w/v). In series [2] (Example 3 (comparative): 5.621 mg in water (100 mL) with NaH2PO4, stirred 120 minutes), the “Latanoprost concentration of aqueous solution” value is 0.00015 % (w/v). For the same compound, the “percent of target concentration of 0.005%” value in series [2] (Example 3 (comparative): stirred 120 minutes, no heating) stood at 30%. In series [2] (Example 4 (comparative): heated at 40° C. with stirring for 120 minutes), the “percent of target concentration 0.005%” value was found to be 81.4%. In series [2] (Example 4 (comparative): mixture from Example 3 heated at 40° C. with stirring for 120 minutes), the “concentration of solution of Latanoprost” value is 0.00407 % (w/v).
